Measured values taken from the supplement of paper PMC10307832.

Tests used:
Assay in all cases: relative viability (nuclei count vs DMSO), 5 days (fraction); higher = more cells survive
Quizartinib + Tozasertib = compound: CC(C)(C)c1cc(NC(=O)Nc2ccc(-c3cn4c(n3)sc3cc(OCCN5CCOCC5)ccc34)cc2)no1 [Quizartinib] + Cc1cc(Nc2cc(N3CCN(C)CC3)nc(Sc3ccc(NC(=O)C4CC4)cc3)n2)n[nH]1 [Tozasertib] (partner 0.1 µM)
Outline: (§1)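 Relative viability is defined as nuclei in treated wells over nuclei in vehicle wells. Duplicate plates were run and medians reported. Lung cancer cell lines in 1536-well plates were dosed by pin tool one day after seeding, with one drug or with a fixed anchor-drug dose plus five library-drug doses (not always all listed) in √10 steps, and nuclei were counted after 5 days.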

YM155 + Navitoclax = compound: COCC[n+]1c2c(n(Cc3cnccn3)c1C)C(=O)c1ccccc1C2=O [YM155] + CC1(C)CCC(c2ccc(Cl)cc2)=C(CN2CCN(c3ccc(C(=O)NS(=O)(=O)c4ccc(N[C@H](CCN5CCOCC5)CSc5ccccc5)c(S(=O)(=O)C(F)(F)F)c4)cc3)CC2)C1 [Navitoclax] (partner 0.5 µM)
Outline: as §1

YM155 + Linsitinib = compound: COCC[n+]1c2c(n(Cc3cnccn3)c1C)C(=O)c1ccccc1C2=O [YM155] + C[C@]1(O)C[C@@H](c2nc(-c3ccc4ccc(-c5ccccc5)nc4c3)c3c(N)nccn32)C1 [Linsitinib] (partner 1 µM)
Outline: as §1

YM155 + Palbociclib = compound: COCC[n+]1c2c(n(Cc3cnccn3)c1C)C(=O)c1ccccc1C2=O [YM155] + CC(=O)c1c(C)c2cnc(Nc3ccc(N4CCNCC4)cn3)nc2n(C2CCCC2)c1=O [Palbociclib] (partner 0.5 µM)
Outline: as §1

Row | Cell Line | relative viability (Quizartinib + Tozasertib; first compound 0.001 µM) | relative viability (Quizartinib + Tozasertib; first compound 0.003162 µM) | relative viability (Quizartinib + Tozasertib; first compound 0.01 µM) | relative viability (Quizartinib + Tozasertib; first compound 0.03162 µM) | relative viability (Quizartinib + Tozasertib; first compound 0.1 µM) | relative viability (YM155 + Navitoclax; first compound 0.002 µM) | relative viability (YM155 + Navitoclax; first compound 0.006325 µM) | relative viability (YM155 + Navitoclax; first compound 0.02 µM) | relative viability (YM155 + Navitoclax; first compound 0.06325 µM) | relative viability (YM155 + Linsitinib; first compound 0.002 µM) | relative viability (YM155 + Linsitinib; first compound 0.006325 µM) | relative viability (YM155 + Linsitinib; first compound 0.02 µM) | relative viability (YM155 + Linsitinib; first compound 0.06325 µM) | relative viability (YM155 + Palbociclib; first compound 0.002 µM) | relative viability (YM155 + Palbociclib; first compound 0.006325 µM) | relative viability (YM155 + Palbociclib; first compound 0.02 µM) | relative viability (YM155 + Palbociclib; first compound 0.06325 µM)
1 | 201T | 0.878 | 0.858 | 0.995 | 0.887 | 0.854 | 1.26 | 1.18 | 1.17 | 1.23 | 0.98 | 0.984 | 1.03 | 1.06 | 0.367 | 0.339 | 0.361 | 0.369
2 | A549 |  |  |  |  |  | 1.28 | 1.24 | 1.11 | 0.14 | 0.61 | 0.576 | 0.544 | 0.732 |  |  |  | 
3 | A-427 |  | 0.204 | 0.191 | 0.204 | 0.189 | 0.984 | 0.88 | 0.91 | 0.997 | 1.06 | 1.22 | 1.12 | 1.09 | 0.532 | 0.502 | 0.567 | 0.293
4 | ABC-1 | 0.184 | 0.179 | 0.172 | 0.205 | 0.183 |  |  |  |  | 0.727 | 0.457 | 0.153 | 0.233 |  | 0.662 | 0.269 | 0.283
5 | BEN | 0.48 | 0.504 | 0.562 | 0.54 | 0.39 | 0.0838 | 0.0769 | 0.0788 | 0.0609 | 0.922 | 1.03 | 0.878 | 0.929 | 0.482 | 0.412 | 0.477 | 0.545
6 | CAL-12T | 0.32 | 0.283 | 0.315 | 0.234 | 0.199 | 1.22 | 1.16 | 1.16 | 0.299 | 0.818 | 0.98 | 0.9 | 0.781 | 0.45 | 0.582 | 0.489 | 0.433
7 | COR-L23 | 0.175 | 0.178 | 0.159 | 0.116 | 0.139 | 0.905 | 0.877 | 0.505 | 0.123 | 0.846 | 0.857 | 0.463 | 0.174 | 0.279 | 0.272 | 0.217 | 0.152
8 | COR-L 105 | 0.344 | 0.343 | 0.42 | 0.36 | 0.347 | 0.672 | 0.892 | 0.783 | 0.501 | 1 | 1.13 | 1.04 | 0.672 | 0.371 | 0.388 | 0.424 | 0.401
9 | Calu-6 |  |  |  |  |  | 0.849 | 0.589 | 0.191 | 0.112 | 0.946 | 0.836 | 0.848 | 0.175 |  |  |  | 
10 | ChaGo-K-1 | 0.235 | 0.234 | 0.209 | 0.205 | 0.197 | 1.14 | 0.928 | 0.785 | 0.93 |  |  |  |  | 0.951 | 0.909 | 0.881 | 0.918
11 | EBC-1 |  |  |  |  |  | 0.428 | 0.404 | 0.458 | 0.389 | 0.8 | 0.925 | 0.864 | 0.755 |  |  |  | 
12 | EKVX | 0.176 | 0.323 | 0.347 | 0.369 | 0.334 | 0.854 | 0.989 | 1.01 | 0.704 | 0.958 | 1.09 | 1.04 | 0.697 | 0.386 | 0.348 | 0.42 | 0.215
13 | EMC-BAC-2 | 0.262 | 0.259 | 0.281 |  | 0.282 | 1.12 | 1.24 | 1.09 | 1.13 | 0.85 | 0.83 | 0.597 | 0.818 | 0.49 | 0.514 | 0.536 | 0.384
14 | EPLC-272H | 0.226 | 0.208 | 0.246 | 0.33 | 0.297 | 1.14 | 1.11 | 1.13 | 1.18 | 1.22 | 1.19 | 1.1 | 1.06 | 0.314 | 0.27 | 0.35 | 0.327
15 | H3255 | 0.59 | 0.58 | 0.508 | 0.584 | 0.544 | 0.491 | 0.523 | 0.487 | 0.525 | 1.04 | 0.875 | 0.917 | 0.981 | 0.324 | 0.305 | 0.351 | 0.319
16 | HARA |  | 0.101 | 0.102 | 0.0944 | 0.122 | 1.11 | 1.14 | 1.13 | 1.14 | 0.902 | 0.946 | 1.04 | 0.931 | 0.235 | 0.262 | 0.328 | 0.211
17 | HCC-15 |  | 0.429 | 0.602 | 0.29 | 0.2 | 0.66 | 0.673 | 0.72 | 0.706 | 0.809 | 0.627 | 0.872 | 0.798 | 0.702 | 0.854 | 0.701 | 0.749
18 | HCC-44 |  | 0.867 | 0.849 | 0.645 | 0.689 | 0.983 | 1.04 | 0.988 | 0.914 | 0.712 | 0.724 | 0.715 | 0.664 | 0.975 | 1.01 | 0.928 | 1
